The target of test [1] is DNA polymerase beta (Homo sapiens, UniProt P06746). The test can be described thus: Inhibition of DNA polymerase beta.
Test [2] has as its target DNA nucleotidylexotransferase (Homo sapiens, UniProt P04053). The test can be described thus: Inhibition of human TdT.
Test [3] has as its target T1, DNA polymerase alpha catalytic subunit (Homo sapiens, UniProt P09884).
T1 sequence (P09884 whole entry): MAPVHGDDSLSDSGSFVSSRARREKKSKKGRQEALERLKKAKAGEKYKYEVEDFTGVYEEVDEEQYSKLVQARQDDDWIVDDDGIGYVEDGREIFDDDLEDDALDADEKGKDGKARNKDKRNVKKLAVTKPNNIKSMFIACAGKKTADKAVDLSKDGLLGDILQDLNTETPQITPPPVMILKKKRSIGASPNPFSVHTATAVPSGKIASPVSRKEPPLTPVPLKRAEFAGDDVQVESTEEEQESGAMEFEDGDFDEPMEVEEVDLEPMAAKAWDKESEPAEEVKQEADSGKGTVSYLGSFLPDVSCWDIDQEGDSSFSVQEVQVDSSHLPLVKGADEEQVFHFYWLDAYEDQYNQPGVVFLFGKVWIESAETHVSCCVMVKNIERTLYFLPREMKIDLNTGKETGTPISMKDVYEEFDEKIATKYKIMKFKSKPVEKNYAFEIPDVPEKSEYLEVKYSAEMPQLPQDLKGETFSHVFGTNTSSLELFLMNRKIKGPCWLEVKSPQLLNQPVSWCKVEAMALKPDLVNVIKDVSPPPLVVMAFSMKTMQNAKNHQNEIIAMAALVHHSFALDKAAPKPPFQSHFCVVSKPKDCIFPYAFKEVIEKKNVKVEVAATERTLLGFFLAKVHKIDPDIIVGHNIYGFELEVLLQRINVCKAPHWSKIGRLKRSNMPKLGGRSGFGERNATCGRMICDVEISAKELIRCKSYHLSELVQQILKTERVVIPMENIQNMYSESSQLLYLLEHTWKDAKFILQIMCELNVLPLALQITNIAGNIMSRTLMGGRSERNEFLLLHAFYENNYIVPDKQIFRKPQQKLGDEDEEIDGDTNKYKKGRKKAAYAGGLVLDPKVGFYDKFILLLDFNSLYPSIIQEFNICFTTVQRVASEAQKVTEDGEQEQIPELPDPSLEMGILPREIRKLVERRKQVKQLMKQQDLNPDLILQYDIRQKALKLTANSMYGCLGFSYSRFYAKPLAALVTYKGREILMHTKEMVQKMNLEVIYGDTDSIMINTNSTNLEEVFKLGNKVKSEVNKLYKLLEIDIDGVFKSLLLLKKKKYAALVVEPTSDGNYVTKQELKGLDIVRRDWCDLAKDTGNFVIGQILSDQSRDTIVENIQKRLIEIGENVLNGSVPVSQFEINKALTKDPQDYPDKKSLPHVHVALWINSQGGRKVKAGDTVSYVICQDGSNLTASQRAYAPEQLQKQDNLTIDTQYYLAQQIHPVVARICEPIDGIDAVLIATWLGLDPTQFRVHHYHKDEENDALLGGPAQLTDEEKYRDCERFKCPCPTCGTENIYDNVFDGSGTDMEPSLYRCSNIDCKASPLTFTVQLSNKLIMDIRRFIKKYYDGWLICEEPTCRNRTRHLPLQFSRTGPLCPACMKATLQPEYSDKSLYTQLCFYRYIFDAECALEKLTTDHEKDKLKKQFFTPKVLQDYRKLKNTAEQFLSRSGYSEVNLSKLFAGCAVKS
The experiment in a line: Inhibition of DNA polymerase alpha.

Sequence of DNA nucleotidylexotransferase (P04053 whole entry): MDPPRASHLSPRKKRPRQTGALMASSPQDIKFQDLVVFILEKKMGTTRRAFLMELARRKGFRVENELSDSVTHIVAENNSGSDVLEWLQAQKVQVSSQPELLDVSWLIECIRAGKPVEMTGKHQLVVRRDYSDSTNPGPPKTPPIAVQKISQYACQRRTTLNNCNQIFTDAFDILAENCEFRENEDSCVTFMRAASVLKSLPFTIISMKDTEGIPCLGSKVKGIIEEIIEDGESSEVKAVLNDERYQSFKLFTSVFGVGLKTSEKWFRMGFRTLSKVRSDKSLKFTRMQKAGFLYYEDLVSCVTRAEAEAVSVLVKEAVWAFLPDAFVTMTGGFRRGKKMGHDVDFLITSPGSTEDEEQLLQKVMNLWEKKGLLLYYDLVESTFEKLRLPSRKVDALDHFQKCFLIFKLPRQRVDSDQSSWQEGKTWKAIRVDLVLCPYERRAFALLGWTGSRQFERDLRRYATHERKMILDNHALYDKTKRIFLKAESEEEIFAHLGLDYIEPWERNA

Regarding `CCCCCCCCCCCCCCCCC1=C[C@H](C(=O)OC)[C@H]2C(=O)[C@]3(C(=O)OC)C[C@]3(CCCCCCCCCCCCCCCC)[C@H]2[C@H]1C(=O)OC`, the IC50 in test [1], in test [2] and in test [3] was over 12.5 µM throughout.
As for `CCCCCCCCCCCCCCCCC1=C[C@H](C(=O)NCCc2ccccc2)[C@H]2C(=O)C(C(=O)OC)=C(CCCCCCCCCCCCCCCC)[C@H]2[C@H]1C(=O)OC`, the IC50 (in general, the concentration needed to halve the response being measured) is 8.7 µM in test [1], over 12.5 µM in test [2] and 6.9 µM in test [3].
In the same order, the values of `CCCCCCCCCCCCC(=O)/C=C1\[C@@H](O)[C@@H](C(=O)OC)[C@H](CC)N1Cc1ccccc1` are 27.1 µM, over 50 µM and 19.7 µM.
As for `CCCCCCCCCCCCC1=C[C@H](C(=O)O)[C@H]2C(=O)C(C(=O)OC)=C(CCCCCCCCCCCC)[C@H]2[C@H]1C(=O)OC`, the half-inhibitory concentration (IC50) in test [1] was found to be 2.3 µM; in test [2], 8.6 µM; in test [3], 1.9 µM.
The matching figures for `CCCCCCCCCCCCCCCCC1=C[C@H](C(=O)O)[C@H]2C(=O)C(C(=O)OC(C)C)=C(CCCCCCCCCCCCCCCC)[C@H]2[C@H]1C(=O)OC(C)C`: 4.4 µM, 20 µM and 3.3 µM.
On to `CCC1=C[C@H](C(=O)O)[C@H]2C(=O)C(C(=O)OC)=C(CC)[C@H]2[C@H]1C(=O)OC`, for which the IC50 in test [1], in test [2] and in test [3] was over 50 µM in each case.
In the case of `CCCCCCCCCCCCC(=O)/C=C1\[C@H](O)[C@@H](C(=O)OC)[C@H](CC)N1CCc1ccccc1`, the IC50 in test [1] was 22 µM; in test [2] it was over 50 µM; in test [3] it was 25 µM.
In the same order, the values of `CCCCCCCCCCCCC(=O)/C=C1\[C@H](O)[C@@H](C(=O)OC)[C@H](CC)N1Cc1ccccc1` are 30 µM, over 50 µM and 19.9 µM.
Consider `CCCCCCCCCCCCCCCCC1=C[C@H](C(=O)OCC)[C@H]2C(=O)C(C(=O)OC)=C(CCCCCCCCCCCCCCCC)[C@H]2[C@@H]1C(=O)OC`, for which the figures for the half-maximal inhibitory concentration (IC50) in test [1], in test [2] and in test [3] were 2.4 µM, 48.4 µM and 3.5 µM, respectively.
`CCCCCCCCCCCCCCCCC1=C[C@H](C(=O)O)[C@H]2C(=O)C(C(=O)OC)=C(CCCCCCCCCCCCCCCC)[C@H]2[C@H]1C(=O)OC`: the concentration for half-maximal inhibition (IC50) in test [1] was 3.2 µM; in test [2], 2.5 µM; in test [3], 1.9 µM.
In the same order, the values of `CCCCCCCCCCCCC(=O)/C=C1\[C@H](O)[C@@H](C(=O)OC)[C@H](c2ccccc2)N1CCc1c[nH]c2ccccc12` are 10 µM, over 50 µM and 21 µM.
Consider `CCCCCCCCCCCCCCCCC1=C[C@H](C(=O)OCC)[C@H]2C(=O)C(C(=O)OC)=C(CCCCCCCCCCCCCCCC)[C@H]2[C@H]1C(=O)OC`, for which the 50% inhibitory concentration (IC50) in test [1] was determined as 1.9 µM; in test [2], 39.7 µM; in test [3], 2.3 µM.
Regarding `CCCCCCCCCCCCCCCCC(=O)/C=C/C(=O)CC(=O)OC` [E-ENEDIONE], the figures for the half-maximal inhibitory concentration (IC50) in test [1] and in test [3] were 8.8 µM and 3.7 µM, respectively.
Take `CCCCCCCCCCCCCCCC[C@]1(O)C=C[C@H](O)[C@H]1C(=O)OC` [PLAKEVULIN A]: the concentration for half-maximal inhibition (IC50) in test [1] is 179 µM; in test [3], 66 µM.
With `CCCCCCCCCCCCCCCC[C@]1(O)C=CC(=O)[C@H]1C(=O)OC` [UNTENONE A], the half-inhibitory concentration (IC50) in test [1] was determined as 57 µM; in test [3], 4.3 µM.
